Measured values reported in ChEMBL document CHEMBL6114966, “Discovery of maleimide derivatives as m6A demethylase ALKBH5 inhibitors” (Bioorg Med Chem, 2025).
The source made the active and inactive calls. The rule behind the calls is not given here.

Key:
[1] = molecular target: T1, RNA demethylase ALKBH5 (Homo sapiens, UniProt Q6P6C2); experiment: Inhibition of ALKBH5 (unknown origin) using 5'-ATTGTCA(m6A)CAGCAGA-FAM-3' as substrate measured after 30 mins by fluorescence polarization assay
Target sequence in this assay (Q6P6C2 whole entry): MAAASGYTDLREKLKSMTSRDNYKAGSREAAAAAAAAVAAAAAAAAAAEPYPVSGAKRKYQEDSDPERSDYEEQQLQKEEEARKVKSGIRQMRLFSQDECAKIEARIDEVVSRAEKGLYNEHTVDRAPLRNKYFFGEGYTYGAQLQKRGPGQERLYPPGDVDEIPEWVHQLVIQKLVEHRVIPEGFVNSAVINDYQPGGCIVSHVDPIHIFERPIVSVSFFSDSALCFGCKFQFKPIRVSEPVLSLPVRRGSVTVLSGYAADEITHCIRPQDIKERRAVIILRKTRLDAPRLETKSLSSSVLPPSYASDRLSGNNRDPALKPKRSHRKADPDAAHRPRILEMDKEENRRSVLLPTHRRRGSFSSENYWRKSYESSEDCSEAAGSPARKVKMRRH

[2] = molecular target: T1, RNA demethylase ALKBH5; experiment: Inhibition of ALKBH5 (unknown origin) using 5'-TAGACATTGCCATTCTCGATAGG (m6A) TCCGGTCAAACCTAGAC GAATTCCA-3' as substrate measured after 2 hrs in presence of 2-OG by PAGE based restriction enzyme digestion assay
Target sequence in this assay (Q6P6C2 whole entry): as the sequence (Q6P6C2 whole entry) above

[3] = molecular target: T1, RNA demethylase ALKBH5; experiment: Binding affinity to ALKBH5 (unknown origin) assessed as change in melting temperature at 100 uM measured after 30 mins by thermal shift assay
Target sequence in this assay (Q6P6C2 2-394 limits assumed): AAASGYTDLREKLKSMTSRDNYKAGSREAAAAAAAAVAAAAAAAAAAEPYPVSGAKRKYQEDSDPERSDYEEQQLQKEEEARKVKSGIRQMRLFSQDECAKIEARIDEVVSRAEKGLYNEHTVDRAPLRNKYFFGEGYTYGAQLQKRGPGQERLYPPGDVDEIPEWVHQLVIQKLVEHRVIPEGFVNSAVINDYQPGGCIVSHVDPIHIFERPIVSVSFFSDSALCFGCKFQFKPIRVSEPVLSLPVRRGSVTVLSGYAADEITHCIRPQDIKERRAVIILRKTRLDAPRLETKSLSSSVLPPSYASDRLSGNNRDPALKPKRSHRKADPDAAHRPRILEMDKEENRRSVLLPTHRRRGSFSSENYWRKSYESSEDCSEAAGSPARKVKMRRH

[4] = molecular target: T1, RNA demethylase ALKBH5; experiment: Binding affinity to ALKBH5 (unknown origin) assessed as change in melting temperature at 50 uM measured after 30 mins by thermal shift assay
Target sequence in this assay (Q6P6C2 2-394 limits assumed): as above

[5] = molecular target: T1, RNA demethylase ALKBH5; experiment: Binding affinity to ALKBH5 (unknown origin) assessed as change in melting temperature at 25 uM measured after 30 mins by thermal shift assay
Target sequence in this assay (Q6P6C2 2-394 limits assumed): as above

[6] = molecular target: T1, RNA demethylase ALKBH5; experiment: Inhibition of ALKBH5 (unknown origin) at 20 to 100 uM using 5'-TAGACATTGCCATTCTCGATAGG (m6A) TCCGGTCAAACCTAGAC GAATTCCA-3' as substrate measured after 2 hrs in presence of 2-OG by PAGE based restriction enzyme digestion assay; details: dose 20-100 µM
Target sequence in this assay (Q6P6C2 2-394 limits assumed): as the sequence (Q6P6C2 2-394 limits assumed) above

[7] = molecular target: T1, RNA demethylase ALKBH5; experiment: Binding affinity to ALKBH5 (unknown origin) by 1H NMR STD analysis
Target sequence in this assay (Q6P6C2 2-394 limits assumed): as the sequence (Q6P6C2 2-394 limits assumed) above

[8] = molecular target: T2, Alpha-ketoglutarate-dependent dioxygenase FTO (Homo sapiens, UniProt Q9C0B1); experiment: Inhibition of FTO (unknown origin) using 5'-TAGACATTGCCATTCTCGATAGG (m6A) TCCGGTCAAACCTAGAC GAATTCCA-3' as substrate measured after 2 hrs in presence of 2-OG by PAGE based restriction enzyme digestion assay
Target sequence in this assay (Q9C0B1 whole entry): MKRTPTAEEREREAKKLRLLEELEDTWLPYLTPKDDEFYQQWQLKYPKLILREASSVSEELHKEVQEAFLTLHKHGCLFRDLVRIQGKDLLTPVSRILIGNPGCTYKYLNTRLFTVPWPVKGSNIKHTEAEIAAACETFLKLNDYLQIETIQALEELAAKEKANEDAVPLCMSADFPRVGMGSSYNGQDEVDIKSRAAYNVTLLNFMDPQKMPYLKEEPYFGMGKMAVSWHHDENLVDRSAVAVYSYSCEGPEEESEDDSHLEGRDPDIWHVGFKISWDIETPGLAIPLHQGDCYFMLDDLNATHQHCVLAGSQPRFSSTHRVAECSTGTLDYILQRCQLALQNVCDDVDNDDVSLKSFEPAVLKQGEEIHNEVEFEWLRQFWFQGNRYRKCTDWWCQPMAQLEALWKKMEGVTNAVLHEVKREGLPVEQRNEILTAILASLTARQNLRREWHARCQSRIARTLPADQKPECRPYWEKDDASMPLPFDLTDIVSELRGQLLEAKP

[9] = molecular target: T2, Alpha-ketoglutarate-dependent dioxygenase FTO; experiment: Inhibition of FTO (unknown origin) at 25 to 200 uM using 5'-TAGACATTGCCATTCTCGATAGG (m6A) TCCGGTCAAACCTAGAC GAATTCCA-3' as substrate measured after 2 hrs in presence of varying levels of 2-OG by PAGE based restriction enzyme digestion assay; details: dose 25-200 µM
Target sequence in this assay (Q9C0B1 whole entry, looked up): as the sequence (Q9C0B1 whole entry) above

[10] = tested on: MV4-11; experiment: Antiproliferative activity against human MV4-11 cells assessed as reduction in cell viability measured after 72 hrs by CellTiter-Lumi luminescence assay; assay type: functional, cell-based; details: MV4-11, 72 h
[11] = molecular target: T1, RNA demethylase ALKBH5; experiment: Inhibition of ALKBH5 in human MV4-11 cells assessed as increase in intracellular m6A level by dot blot assay; assay type: cell-based; details: dose 20-40 µM
Target sequence in this assay (Q6P6C2 2-394 limits assumed): as the sequence (Q6P6C2 2-394 limits assumed) above

[12] = molecular target: T1, RNA demethylase ALKBH5; experiment: Inhibition of ALKBH5 in human MV4-11 cells assessed as down regulation of TACC3 mRNA expression measured after 48 hrs by RT-qPCR analysis; assay type: cell-based; details: dose 10-40 µM
[13] = molecular target: T1, RNA demethylase ALKBH5; experiment: Inhibition of ALKBH5 in human MV4-11 cells assessed as down regulation of AXL mRNA expression measured after 48 hrs by RT-qPCR analysis; assay type: cell-based; details: dose 10-40 µM
[14] = molecular target: T1, RNA demethylase ALKBH5; experiment: Inhibition of ALKBH5 in human MV4-11 cells assessed as upregulation of p21 mRNA expression measured after 48 hrs by RT-qPCR analysis; assay type: cell-based; details: dose 10-40 µM
[15] = molecular target: T1, RNA demethylase ALKBH5; experiment: Inhibition of ALKBH5 in human MV4-11 cells assessed as down regulation of TACC3 expression measured after 48 hrs by Western blot analysis; assay type: cell-based; details: dose 5-40 µM

## Cc1ccc(C(=O)O)c(NC2=C(Cl)C(=O)N(c3ccc(Br)c(Br)c3)C2=O)c1
[1]
  IC50: > 200 µM

## O=C(O)c1ccccc1NC1=C(Cl)C(=O)N(c2cccc(Cl)c2)C1=O
[1]
  IC50: 29.6 µM

## O=C(O)c1ccccc1NC1=C(Cl)C(=O)N(c2ccc(Cl)c(Cl)c2)C1=O
[1]
  IC50: 20.6 µM

## Cc1cc([N+](=O)[O-])c(Br)cc1N1C(=O)C(Cl)=C(Nc2ccccc2C(=O)O)C1=O
[1]
  IC50: > 200 µM

## N#Cc1ccc(N2C(=O)C(Cl)=C(Nc3ccccc3C(=O)O)C2=O)cc1
[1]
  IC50: > 200 µM

## COC(=O)c1cccc(NC2=C(Cl)C(=O)N(c3ccc(Cl)c(Cl)c3)C2=O)c1
[1]
  IC50: > 200 µM

## CC(=O)c1ccc(N2C(=O)C(Cl)=C(Nc3ccccc3C(=O)O)C2=O)cc1
[1]
  IC50: 34.1 µM

## Cc1ccc(N2C(=O)C(Cl)=C(Nc3ccccc3C(=O)O)C2=O)cc1Br
[1]
  IC50: 32.9 µM

## O=C(O)c1ccccc1NC1=C(Cl)C(=O)N(c2ccc(O)cc2)C1=O
[1]
  IC50: > 200 µM

## C#Cc1cccc(N2C(=O)C(Cl)=C(Nc3ccccc3C(=O)O)C2=O)c1
[1]
  IC50: > 200 µM

## O=C1C(Cl)=C(Nc2ccccc2)C(=O)N1c1ccc(Cl)c(Cl)c1
[2]
  IC50: < 100 µM
[1]
  IC50: 45.4 µM
[3]
  ΔTm: -2.4 °C
[4]
  ΔTm: -1.3 °C
[5]
  ΔTm: -1.2 °C

## N#Cc1cc(C(F)(F)F)ccc1N1C(=O)C(Cl)=C(Nc2ccccc2C(=O)O)C1=O
[1]
  IC50: > 200 µM

## N#Cc1ccc(N2C(=O)C(Cl)=C(Nc3ccccc3C(=O)O)C2=O)cc1Br
[1]
  IC50: 18.7 µM

## Cc1ccc(Br)cc1N1C(=O)C(Cl)=C(Nc2ccccc2C(=O)O)C1=O
[1]
  IC50: > 200 µM

## COc1ccc(N2C(=O)C(Cl)=C(Nc3ccccc3C(=O)O)C2=O)cc1
[1]
  IC50: > 200 µM

## O=C(O)c1ccccc1NC1=C(Cl)C(=O)N(c2ccc([N+](=O)[O-])c(Br)c2)C1=O
[1]
  IC50: 16.5 µM

## O=C(O)c1ccc(F)cc1NC1=C(Cl)C(=O)N(c2ccc(Br)c(Br)c2)C1=O
[1]
  IC50: 5.34 µM

## O=C(O)c1ccccc1NC1=C(Cl)C(=O)N(c2cccc(O)c2)C1=O
[1]
  IC50: > 200 µM

## N#Cc1ccc(Br)cc1N1C(=O)C(Cl)=C(Nc2ccccc2C(=O)O)C1=O
[1]
  IC50: 69.1 µM

## O=C(O)c1ccccc1NC1=C(Cl)C(=O)N(c2ccccc2Cl)C1=O
[1]
  IC50: 47.8 µM

## O=C(O)c1ccccc1NC1=C(Cl)C(=O)N(c2ccc(Br)c(Br)c2)C1=O
[1]
  IC50: 17.4 µM

## NS(=O)(=O)c1cccc(NC2=C(Cl)C(=O)N(c3ccc(Cl)c(Cl)c3)C2=O)c1
[1]
  IC50: > 200 µM

## O=C(O)c1ccccc1NC1=C(Cl)C(=O)N(c2ccc(C(F)(F)F)c(Br)c2)C1=O
[2]
  IC50: 25.9 µM
[1]
  IC50: 16.9 µM
[6]
  inhibition: Active

## O=C(O)c1ccccc1NC1=C(Cl)C(=O)N(c2cccc(Br)c2)C1=O
[1]
  IC50: 21.3 µM

## O=C(O)c1ccccc1NC1=C(Cl)C(=O)N(c2ccc(I)c(Cl)c2)C1=O
[2]
  IC50: 11.2 µM
[1]
  IC50: 2.32 µM
[6]
  inhibition: Active
[7]
  Activity: Active
[8]
  IC50: > 250 µM
[9]
  inhibition: Active
[10]
  IC50: 31.5 µM
[11]
  inhibition: Dose-dependent-effect
[12]
  inhibition: Dose-dependent-effect
[13]
  inhibition: Dose-dependent-effect
[14]
  inhibition: Dose-dependent-effect
[15]
  inhibition: Dose-dependent-effect

## O=C(O)c1ccccc1NC1=C(Cl)C(=O)N(c2cccc(I)c2)C1=O
[1]
  IC50: 37 µM

## Cc1cc(N2C(=O)C(Cl)=C(Nc3ccccc3C(=O)O)C2=O)ccc1C(F)(F)F
[1]
  IC50: > 200 µM

## O=C(O)c1ccccc1NC1=C(Cl)C(=O)N(c2ccc(I)c(Br)c2)C1=O
[1]
  IC50: 9.57 µM
